# Assay results: the NIST ThermoML archive (doi:10.1021/je800290k)
# Where “and” joins values, the source holds several entries; their conditions need not be identical. Identical values can stand only once. ± gives the expanded uncertainty stated by the source.
# Settings: Liquid, Ebulliometric method (Recirculating still)
smiles,measurement,setting,value
CN(CCO)CCO [N-methyldiethanolamine],vapor or sublimation pressure,409.69 K,2.48 ± 0.6 kPa
same,vapor or sublimation pressure,413.43 K,2.98 ± 0.6 kPa
same,vapor or sublimation pressure,416.72 K,3.48 ± 0.6 kPa
same,vapor or sublimation pressure,421.96 K,4.48 ± 0.6 kPa
same,vapor or sublimation pressure,426.65 K,5.48 ± 0.6 kPa
same,vapor or sublimation pressure,430.48 K,6.48 ± 0.6 kPa
same,vapor or sublimation pressure,435.5 K,7.98 ± 0.6 kPa
"CNCCCN [N-methyl-1,3-diaminopropane]",vapor or sublimation pressure,326.81 K,3.46 ± 0.6 kPa
same,vapor or sublimation pressure,331.62 K,4.47 ± 0.6 kPa
same,vapor or sublimation pressure,337.36 K,5.97 ± 0.6 kPa
same,vapor or sublimation pressure,343.91 K,7.97 ± 0.6 kPa
same,vapor or sublimation pressure,353.78 K,12.48 ± 0.6 kPa
same,vapor or sublimation pressure,365.76 K,20.47 ± 0.61 kPa
same,vapor or sublimation pressure,372.77 K,27.96 ± 0.61 kPa
same,vapor or sublimation pressure,383.53 K,39.97 ± 0.62 kPa
same,vapor or sublimation pressure,397.99 K,64.98 ± 0.63 kPa
same,vapor or sublimation pressure,404.7 K,79.98 ± 0.66 kPa
same,vapor or sublimation pressure,412.5 K,101.27 ± 0.67 kPa
NCCO [2-aminoethan-1-ol],vapor or sublimation pressure,357.46 K,2.98 ± 0.6 kPa
same,vapor or sublimation pressure,362.99 K,3.98 ± 0.6 kPa
same,vapor or sublimation pressure,369.33 K,5.48 ± 0.6 kPa
same,vapor or sublimation pressure,374.29 K,6.98 ± 0.6 kPa
same,vapor or sublimation pressure,378.41 K,8.47 ± 0.6 kPa
same,vapor or sublimation pressure,384.07 K,10.97 ± 0.6 kPa
same,vapor or sublimation pressure,391.14 K,14.96 ± 0.6 kPa
same,vapor or sublimation pressure,398.01 K,19.97 ± 0.61 kPa
same,vapor or sublimation pressure,403.43 K,24.97 ± 0.61 kPa
same,vapor or sublimation pressure,408.19 K,29.97 ± 0.61 kPa
same,vapor or sublimation pressure,415.78 K,39.98 ± 0.62 kPa
same,vapor or sublimation pressure,415.81 K,39.95 ± 0.62 kPa
same,vapor or sublimation pressure,424.61 K,54.95 ± 0.63 kPa
same,vapor or sublimation pressure,429.44 K,64.95 ± 0.64 kPa
same,vapor or sublimation pressure,431.61 K,69.95 ± 0.65 kPa
same,vapor or sublimation pressure,435.61 K,79.95 ± 0.66 kPa
O [water],vapor or sublimation pressure,311.63 K,6.78 ± 0.6 kPa
same,vapor or sublimation pressure,313.24 K,7.38 ± 0.6 kPa
same,vapor or sublimation pressure,314.99 K,8.11 ± 0.6 kPa
same,vapor or sublimation pressure,323.11 K,12.28 ± 0.6 kPa
same,vapor or sublimation pressure,323.14 K,12.28 ± 0.6 kPa
same,vapor or sublimation pressure,323.15 K,12.27 ± 0.6 kPa
same,vapor or sublimation pressure,325.47 K,13.78 ± 0.6 kPa
same,vapor or sublimation pressure,325.61 K,13.8 ± 0.6 kPa
same,vapor or sublimation pressure,332.76 K,19.84 ± 0.6 kPa
same,vapor or sublimation pressure,332.85 K,19.84 ± 0.6 kPa
same,vapor or sublimation pressure,333.13 K,19.58 ± 0.62 kPa
same,vapor or sublimation pressure,333.17 K,19.88 ± 0.6 kPa and 19.88 ± 0.62 kPa
same,vapor or sublimation pressure,333.18 K,19.88 ± 0.6 kPa and 19.88 ± 0.62 kPa
same,vapor or sublimation pressure,333.19 K,19.87 ± 0.6 kPa
same,vapor or sublimation pressure,340.41 K,27.6 ± 0.61 kPa
same,vapor or sublimation pressure,340.44 K,27.58 ± 0.61 kPa
same,vapor or sublimation pressure,340.47 K,27.6 ± 0.61 kPa
same,vapor or sublimation pressure,348.8 K,39.83 ± 0.62 kPa
same,vapor or sublimation pressure,348.84 K,39.83 ± 0.62 kPa
same,vapor or sublimation pressure,349.91 K,41.4 ± 0.62 kPa
same,vapor or sublimation pressure,349.94 K,41.39 ± 0.62 kPa
same,vapor or sublimation pressure,349.97 K,41.4 ± 0.62 kPa
same,vapor or sublimation pressure,353.14 K,47.18 ± 0.63 kPa and 47.19 ± 0.63 kPa
same,vapor or sublimation pressure,353.15 K,47.18 ± 0.63 kPa
same,vapor or sublimation pressure,357.02 K,55.17 ± 0.64 kPa
same,vapor or sublimation pressure,357.07 K,55.18 ± 0.64 kPa
same,vapor or sublimation pressure,357.08 K,55.17 ± 0.64 kPa
same,vapor or sublimation pressure,358.87 K,59.88 ± 0.65 kPa
same,vapor or sublimation pressure,358.92 K,59.88 ± 0.65 kPa
same,vapor or sublimation pressure,362.55 K,68.92 ± 0.6 kPa
same,vapor or sublimation pressure,362.59 K,68.92 ± 0.6 kPa
same,vapor or sublimation pressure,362.8 K,69 ± 0.65 kPa
same,vapor or sublimation pressure,362.83 K,69 ± 0.6 kPa and 68.98 ± 0.6 kPa
same,vapor or sublimation pressure,362.89 K,69.83 ± 0.67 kPa
same,vapor or sublimation pressure,362.93 K,69.83 ± 0.88 kPa
same,vapor or sublimation pressure,367.48 K,82.79 ± 0.73 kPa
same,vapor or sublimation pressure,367.49 K,82.79 ± 0.73 kPa
same,vapor or sublimation pressure,367.67 K,82.79 ± 0.73 kPa
same,vapor or sublimation pressure,367.69 K,82.79 ± 0.73 kPa and 82.78 ± 0.6 kPa
same,vapor or sublimation pressure,371.67 K,96.51 ± 0.6 kPa
same,vapor or sublimation pressure,371.7 K,96.51 ± 0.6 kPa
same,vapor or sublimation pressure,371.9 K,96.47 ± 0.67 kPa
same,vapor or sublimation pressure,371.91 K,96.58 ± 0.67 kPa
same,vapor or sublimation pressure,372.69 K,99.28 ± 0.89 kPa
same,vapor or sublimation pressure,372.86 K,100.59 ± 0.69 kPa
same,vapor or sublimation pressure,372.89 K,100.59 ± 0.69 kPa
same,vapor or sublimation pressure,373.16 K,100.98 ± 0.62 kPa and 100.98 ± 0.66 kPa
